Experimental data: patent US20120108636A1, “Allosteric Enhancers of th A1 Adenosine Receptor” (King Pharmaceuticals Research and Development, Inc., priority 2008, published 2012)

melting point [°C] | Compound
162 to 164 | COCCOc1ccc(-c2sc(N)c(C(=O)c3ccc(Cl)cc3)c2CN(C2CCCCC2)C2CCCCC2)cc1
196 to 200 | N#Cc1ccc(-c2sc(N)c(C(=O)c3ccc(Cl)cc3)c2CN(C2CCCCC2)C2CCCCC2)cc1 [Example 10, {2-Amino-5-(4-cyanophenyl)-4-[(dicyclohexylamino)methyl]thiophen-3-yl}(4-chlorophenyl)methanone]
180 to 184 | CC(C)(C)c1ccc(-c2sc(N)c(C(=O)c3ccc(Cl)cc3)c2CN(C2CCCCC2)C2CCCCC2)cc1 [Example 11, {2-Amino-5-(4-t-butylphenyl)-4-[(dicyclohexylamino)methyl]thiophen-3-yl}(4-chlorophenyl)methanone]
200 to 204 | Nc1sc(-c2ccc(Cl)cc2)c(CN(C2CCCCC2)C2CCCCC2)c1C(=O)c1ccc(Cl)cc1 [Example 12, {2-Amino-5-(4-chlorophenyl)-4-[(dicyclohexylamino)methyl]thiophen-3-yl}(4-chlorophenyl)methanone]
223 to 225 | Nc1sc(-c2ccccc2F)c(CN(C2CCCCC2)C2CCCCC2)c1C(=O)c1ccc(Cl)cc1 [Example 13, {2-Amino-4-[(dicyclohexylamino)methyl]-5-(2-fluorophenyl)thiophen-3-yl}(4-chlorophenyl)methanone]
205 to 207 | Nc1sc(-c2cccc(F)c2)c(CN(C2CCCCC2)C2CCCCC2)c1C(=O)c1ccc(Cl)cc1 [Example 14, {2-Amino-4-[(dicyclohexylamino)methyl]-5-(3-fluorophenyl)thiophen-3-yl}(4-chlorophenyl)methanone]
222 to 224 | Nc1sc(-c2ccc(F)cc2)c(CN(C2CCCCC2)C2CCCCC2)c1C(=O)c1ccc(Cl)cc1 [Example 15, {2-Amino-4-[(dicyclohexylamino)methyl]-5-(4-fluorophenyl)thiophen-3-yl}(4-chlorophenyl)methanone]
127 to 133 | CC(C)CN(Cc1c(-c2ccccc2)sc(N)c1C(=O)c1ccc(Cl)cc1)CC(C)C [Example 16-2, {2-Amino-4-[(diisobutylamino)methyl]-5-phenylthiophen-3-yl}(4-chlorophenyl)methanone]
135 to 141 | Nc1sc(-c2ccccc2)c(CN(C2CCCC2)C2CCCC2)c1C(=O)c1ccc(Cl)cc1 [Example 16-4, {2-Amino-4-[(dicyclopentylamino)methyl]-5-phenylthiophen-3-yl}(4-chlorophenyl)methanone]
162 to 165 | CCCN(Cc1c(-c2ccccc2)sc(N)c1C(=O)c1ccc(Cl)cc1)C1CCCCC1 [Example 16-5, {2-Amino-4-[(cyclohexyl(propyl)amino)methyl]-5-phenylthiophen-3-yl}(4-chlorophenyl)methanone]
151 to 157 | C=CCN(Cc1c(-c2ccccc2)sc(N)c1C(=O)c1ccc(Cl)cc1)C1CCCCC1 [Example 16-6]
156.5 to 160 | COC(=O)CN(C)Cc1c(-c2ccccc2)sc(N)c1C(=O)c1ccc(Cl)cc1 [Example 16-7]
140 to 145 | COCCN(CCOC)Cc1c(-c2ccccc2)sc(N)c1C(=O)c1ccc(Cl)cc1 [Example 16-8, {2-Amino-4-[(bis(2-methoxyethyl)amino)methyl]-5-phenylthiophen-3-yl}(4-chlorophenyl)methanone]
135 to 140 | Nc1sc(-c2ccccc2)c(CNC23CC4CC(CC(C4)C2)C3)c1C(=O)c1ccc(Cl)cc1 [Example 16-10, {2-Amino-4-[(1-adamantylamino)methyl]-5-phenylthiophen-3-yl}(4-chlorophenyl)methanone]
80 to 84 | CN(Cc1c(-c2ccccc2)sc(N)c1C(=O)c1ccc(Cl)cc1)c1ccc(Cl)c(Cl)c1 [Example 16-11, {2-Amino-4-[((3,4-dichlorophenyl)(methyl)amino)methyl]-5-phenylthiophen-3-yl}(4-chlorophenyl)methanone]
131.5 to 136 | COc1ccc(N(C)Cc2c(-c3ccccc3)sc(N)c2C(=O)c2ccc(Cl)cc2)cc1 [Example 16-12, {2-Amino-4-[((4-methoxyphenyl)(methyl)amino)methyl]-5-phenylthiophen-3-yl}(4-chlorophenyl)methanone]
173 to 176 | Cc1ccc(N(C)Cc2c(-c3ccccc3)sc(N)c2C(=O)c2ccc(Cl)cc2)cc1 [Example 16-13, {2-Amino-4-[((4-methylphenyl)(methyl)amino)methyl]-5-phenylthiophen-3-yl}(4-chlorophenyl)methanone]
222 to 225 | Nc1sc(-c2ccc(Cl)c(Cl)c2)c(CN(C2CCCCC2)C2CCCCC2)c1C(=O)c1ccc(Cl)cc1 [Example 16-14, {2-Amino-5-(3,4-dichlorophenyl)-4-[(dicyclohexylamino)methyl]thiophen-3-yl}(4-chlorophenyl)methanone]
175 to 177 | CC(C)Oc1ccc(-c2sc(N)c(C(=O)c3ccc(Cl)cc3)c2CN(C2CCCCC2)C2CCCCC2)cc1 [Example 16-15, {2-Amino-4-[(dicyclohexylamino)methyl]-5-(4-isopropoxyphenyl)thiophen-3-yl}(4-chlorophenyl)methanone]
163 to 166 | Nc1sc(-c2cc(F)cc(F)c2)c(CN(C2CCCCC2)C2CCCCC2)c1C(=O)c1ccc(Cl)cc1 [Example 17, {2-Amino-4-[(dicyclohexylamino)methyl]-5-(3,5-difluorophenyl)thiophen-3-yl}(4-chlorophenyl)methanone]
191 to 194 | Cc1ccc(-c2sc(N)c(C(=O)c3ccc(Cl)cc3)c2CN(C2CCCCC2)C2CCCCC2)cc1 [Example 18, {2-Amino-4-[(dicyclohexylamino)methyl]-5-(4-methylphenyl)thiophen-3-yl}(4-chlorophenyl)methanone]
178 to 182 | COc1ccc(-c2sc(N)c(C(=O)c3ccc(Cl)cc3)c2CN(C2CCCCC2)C2CCCCC2)cc1 [Example 19, {2-Amino-4-[(dicyclohexylamino)methyl]-5-(4-methoxyphenyl)thiophen-3-yl}(4-chlorophenyl)methanone]
132 to 135 | Nc1sc(-c2ccoc2)c(CN(C2CCCCC2)C2CCCCC2)c1C(=O)c1ccc(Cl)cc1 [Example 29, {2-Amino-[(dicyclohexylamino)methyl]-5-(furan-3-yl)thiophen-3-yl}(4-chlorophenyl)methanone]
158 to 160 | Nc1sc(-c2ccco2)c(CN(C2CCCCC2)C2CCCCC2)c1C(=O)c1ccc(Cl)cc1 [Example 31, {2-Amino-4-[(dicyclohexylamino)methyl]-5-(furan-2-yl)thiophen-3-yl}(4-chlorophenyl)methanone]
195 to 197 | Nc1sc(-c2ccc(Cl)s2)c(CN(C2CCCCC2)C2CCCCC2)c1C(=O)c1ccc(Cl)cc1 [Example 32, {5-Amino-5′-chloro-3-[(dicyclohexylamino)methyl]-2,2′-bithiophen-4-yl}(4-chlorophenyl)methanone]
192 to 194 | Nc1sc(-c2ccccn2)c(CN(C2CCCCC2)C2CCCCC2)c1C(=O)c1ccc(Cl)cc1 [Example 34, {2-am ino-4-[(dicyclohexylamino)methyl]-5-(pyridin-2-yl)thiophen-3-yl}(4-chlorophenyl)methanone]
168 to 170 | Nc1sc(-c2cccnc2)c(CN(C2CCCCC2)C2CCCCC2)c1C(=O)c1ccc(Cl)cc1 [Example 35, {2-amino-4-[(dicyclohexylamino)methyl]-5-(pyridin-3-yl)thiophen-3-yl}(4-chlorophenyl)methanone]
214 to 216 | Nc1sc(-c2ccncc2)c(CN(C2CCCCC2)C2CCCCC2)c1C(=O)c1ccc(Cl)cc1 [Example 36, {2-amino-4-[(dicyclohexylamino)methyl]-5-(pyridin-4-yl)thiophen-3-yl}(4-chlorophenyl)methanone]
147 to 150 | Nc1sc(/C=C/CC2CCCCC2)c(CN(C2CCCCC2)C2CCCCC2)c1C(=O)c1ccc(Cl)cc1 [Example 37, (E)-{2-Amino-5-(3-cyclohexylprop-1-enyl)-4-[(dicyclohexylamino)methyl]thiophen-3-yl}(4-chlorophenyl)methanone]
143 to 146 | Nc1sc(/C=C/Cc2ccc(Cl)cc2)c(CN(C2CCCCC2)C2CCCCC2)c1C(=O)c1ccc(Cl)cc1 [Example 38, (E)-{2-amino-5[3-(4-chlorophenyl)prop-1-enyl]-4-[(dicyclohexylamino)methyl]thiophen-3-yl}(4-chlorophenyl)methanone]
